Assay results published in the supplement of paper PMC10627819.

Legend:
S. pneumoniae D39V [1] = assay: fitness (endpoint OD595 vs no drug) (fraction); higher = more growth
Procedure, shortened: (§1)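 Bacterial fitness was scored as optical density at the stationary-phase transition relative to the robust mean of no-drug control wells. Scores are capped at 1. The growth data were OD595 readings every 30 min for 14 h at 37 °C, background-subtracted against the first reading, from 384-well plates inoculated at OD595 0.01 in TSB, LB Lennox or CY.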

B. subtilis 168 [2] = assay: as above
Procedure, shortened: as §1

S. aureus Newman [3] = assay: as above
Procedure, shortened: as §1

S. aureus DSM 20231 = assay: Bliss interaction score (quartile over a dose matrix) (fitness difference); higher = more antagonism (negative = synergy)
Procedure, shortened: (§2)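 The Bliss score was calculated by subtracting the expected fitness, the product of single-drug values, from the observed fitness. OD595 at entry into stationary phase, over the plate's robust no-drug mean and capped at 1, served as the fitness readout. Single-drug values were inferred from combination data, and scores are summarised by quartiles across technical, biological and donor/recipient replicates.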

S. pneumoniae D39V [4] = assay: as above
Procedure, shortened: as §2

B. subtilis 168 [5] = assay: as above
Procedure, shortened: as §2

S. aureus Newman [6] = assay: as above
Procedure, shortened: as §2
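For Bliss interaction score (quartile over a dose matrix) in this document: first quartile when negative (synergy) and third quartile when positive (antagonism).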

CC1=C(C(=O)O)N2C(=O)[C@@H](NC(=O)[C@H](N)c3ccccc3)[C@H]2SC1 [Cephalexin] + CN1C2=CC=CC=C2N=C3C1=CC=CC3=O [Pyocyanin]
fitness, S. pneumoniae D39V [1], one replicate
Details	first compound 0.125 µg/mL	first compound 0.25 µg/mL	first compound 0.5 µg/mL	first compound 1 µg/mL	first compound 2 µg/mL	first compound 4 µg/mL
partner 0.325 µg/mL	0.976	≥ 1	≥ 1	0.817	0.328	0.0365
partner 0.65 µg/mL	0.933	≥ 1	≥ 1	0.891	0.65	0.158
partner 1.3 µg/mL	0.762	0.805	0.822	–	–	–

fitness
Details	first compound 0.125 µg/mL	first compound 0.25 µg/mL	first compound 0.5 µg/mL	first compound 1 µg/mL
B. subtilis 168 [2], partner 1.25 µg/mL	0.923	0.916	0.881	–
B. subtilis 168 [2], partner 2.5 µg/mL	0.874	0.836	0.823	–
B. subtilis 168 [2], partner 5 µg/mL	0.719	0.686	0.679	–
S. aureus Newman [3], partner 1.25 µg/mL	–	0.928	0.92	0.823
S. aureus Newman [3], partner 2.5 µg/mL	–	0.905	0.892	–
S. aureus Newman [3], partner 5 µg/mL	–	0.604	0.559	–

Details	Bliss interaction score
B. subtilis 168 [5]	-0.0454
S. aureus DSM 20231	0.0604
S. aureus Newman [6]	0.0862
S. pneumoniae D39V [4]	0.0919

CC1=C(C(=O)O)N2C(=O)[C@@H](NC(=O)[C@H](N)c3ccccc3)[C@H]2SC1 [Cephalexin] + CN(C)c1cc(NC(=O)CNC(C)(C)C)c(O)c2c1C[C@H]1C[C@H]3[C@H](N(C)C)C(O)=C(C(N)=O)C(=O)[C@@]3(O)C(O)=C1C2=O [Tigecycline]
fitness, one replicate
Details	first compound 0.125 µg/mL	first compound 0.25 µg/mL	first compound 0.5 µg/mL	first compound 1 µg/mL
B. subtilis 168 [2], partner 0.125 µg/mL	–	0.94	≥ 1	0.995
B. subtilis 168 [2], partner 0.25 µg/mL	–	0.952	0.976	0.975
B. subtilis 168 [2], partner 0.5 µg/mL	–	0.958	≥ 1	0.916
S. pneumoniae D39V [1], partner 0.65 µg/mL	0.933	0.959	≥ 1	–
S. pneumoniae D39V [1], partner 1.3 µg/mL	0.964	0.974	≥ 1	–
S. pneumoniae D39V [1], partner 2.6 µg/mL	0.888	0.915	0.978	–

fitness
Details	first compound 0.125 µg/mL	first compound 0.25 µg/mL	first compound 0.5 µg/mL	first compound 1 µg/mL	first compound 2 µg/mL	first compound 4 µg/mL
B. subtilis 168 [2], partner 0.039 µg/mL	0.958	0.946	0.942	–	–	–
B. subtilis 168 [2], partner 0.078 µg/mL	0.903	0.902	0.942	–	–	–
B. subtilis 168 [2], partner 0.156 µg/mL	0.951	0.892	0.943	–	–	–
S. aureus Newman [3], partner 0.039 µg/mL	–	0.974	0.992	≥ 1	–	–
S. aureus Newman [3], partner 0.078 µg/mL	–	0.998	≥ 1	≥ 1	–	–
S. aureus Newman [3], partner 0.156 µg/mL	–	0.97	0.994	≥ 1	–	–
S. pneumoniae D39V [1], partner 0.65 µg/mL	–	–	–	0.514	0.0102	0.0229
S. pneumoniae D39V [1], partner 1.3 µg/mL	–	–	–	0.616	0.0542	0.0691
S. pneumoniae D39V [1], partner 2.6 µg/mL	–	–	–	0.616	0.0292	0.0457

Details	Bliss interaction score
B. subtilis 168 [5]	-0.0606
S. aureus DSM 20231	0.0805
S. aureus Newman [6]	0.0193
S. pneumoniae D39V [4]	-0.0787

CC1=C(C(=O)O)N2C(=O)[C@@H](NC(=O)[C@H](N)c3ccccc3)[C@H]2SC1 [Cephalexin] + CN[C@H](CC(C)C)C(=O)N[C@H]1C(=O)N[C@@H](CC(N)=O)C(=O)N[C@H]2C(=O)N[C@H]3C(=O)N[C@H](C(=O)N[C@H](C(=O)O)c4cc(O)cc(O)c4-c4cc3ccc4O)[C@H](O)c3ccc(c(Cl)c3)Oc3cc2cc(c3O[C@@H]2O[C@H](CO)[C@@H](O)[C@H](O)[C@H]2O[C@H]2C[C@](C)(N)[C@H](O)[C@H](C)O2)Oc2ccc(cc2Cl)[C@H]1O [Vancomycin]
fitness, S. pneumoniae D39V [1], one replicate
Details	first compound 0.125 µg/mL	first compound 0.25 µg/mL	first compound 0.5 µg/mL
partner 0.125 µg/mL	0.824	0.936	≥ 1
partner 0.25 µg/mL	0.165	0.383	0.428
partner 0.5 µg/mL	0.0735	0.0702	0.105

fitness
Details	first compound 0.25 µg/mL	first compound 0.5 µg/mL	first compound 1 µg/mL	first compound 2 µg/mL	first compound 4 µg/mL
S. aureus Newman [3], partner 0.1875 µg/mL	≥ 1	0.997	≥ 1	–	–
S. aureus Newman [3], partner 0.375 µg/mL	0.997	≥ 1	≥ 1	–	–
S. aureus Newman [3], partner 0.75 µg/mL	≥ 1	≥ 1	≥ 1	–	–
S. pneumoniae D39V [1], partner 0.03125 µg/mL	–	–	–	0.0634	0.0468
S. pneumoniae D39V [1], partner 0.0625 µg/mL	–	–	–	0.0312	0.0227
S. pneumoniae D39V [1], partner 0.125 µg/mL	–	–	0.282	0.0467	0.0467

Details	Bliss interaction score
B. subtilis 168 [5]	-0.0548
S. aureus DSM 20231	0.0385
S. aureus Newman [6]	0.0402
S. pneumoniae D39V [4]	-0.207

CC1=C(C(=O)O)N2C(=O)[C@@H](NC(=O)[C@H](N)c3ccccc3)[C@H]2SC1 [Cephalexin] + Cn1nnc(-c2ccc(-c3ccc(N4C[C@H](CO)OC4=O)cc3F)cn2)n1 [Tedizolid]
fitness, S. pneumoniae D39V [1], one replicate
Details	first compound 0.125 µg/mL	first compound 0.25 µg/mL	first compound 0.5 µg/mL
partner 0.125 µg/mL	0.857	0.887	0.943
partner 0.25 µg/mL	0.762	0.775	0.793
partner 0.5 µg/mL	0.282	0.332	0.359

fitness
Details	first compound 0.25 µg/mL	first compound 0.5 µg/mL	first compound 1 µg/mL	first compound 2 µg/mL	first compound 4 µg/mL
S. aureus Newman [3], partner 0.0625 µg/mL	0.965	0.999	0.967	–	–
S. aureus Newman [3], partner 0.125 µg/mL	0.914	0.901	0.924	–	–
S. pneumoniae D39V [1], partner 0.03125 µg/mL	–	–	0.919	0.391	0.0118
S. pneumoniae D39V [1], partner 0.0625 µg/mL	–	–	0.928	0.53	0.113
S. pneumoniae D39V [1], partner 0.125 µg/mL	–	–	0.778	0.529	0.115

Details	Bliss interaction score
B. subtilis 168 [5]	-0.0471
S. aureus DSM 20231	-0.121
S. aureus Newman [6]	0.0857
S. pneumoniae D39V [4]	0.304

CNC(C)C1CCC(N)C(OC2C(N)CC(N)C(OC3OCC(C)(O)C(NC)C3O)C2O)O1 (stereo unspecified) [Gentamicin] + C/C(=C\C(=O)OCCCCCCCCC(=O)O)C[C@@H]1OC[C@H](C[C@@H]2O[C@H]2[C@@H](C)[C@H](C)O)[C@@H](O)[C@H]1O [Pseudomonic acid]
fitness, S. pneumoniae D39V [1], main component drawn
Details	first compound 2 µg/mL	first compound 4 µg/mL	first compound 8 µg/mL
partner 0.03 µg/mL	0.922	0.923	0.881
partner 0.06 µg/mL	0.727	0.769	0.673
partner 0.12 µg/mL	0.396	0.393	0.323

fitness, S. aureus Newman [3], one replicate, main component drawn
Details	first compound 1 µg/mL	first compound 2 µg/mL	first compound 4 µg/mL
partner 0.0313 µg/mL	0.0474	0.0502	0.0545
partner 0.0625 µg/mL	0.0311	0.0417	0.0388
partner 0.125 µg/mL	0.0416	0.0314	0.0572

main component drawn
Details	Bliss interaction score
B. subtilis 168 [5]	0.0456
S. aureus DSM 20231	0.0111
S. aureus Newman [6]	0.0245
S. pneumoniae D39V [4]	-0.134

CNC(C)C1CCC(N)C(OC2C(N)CC(N)C(OC3OCC(C)(O)C(NC)C3O)C2O)O1 (stereo unspecified) [Gentamicin] + CN[C@H](CC(C)C)C(=O)N[C@H]1C(=O)N[C@@H](CC(N)=O)C(=O)N[C@H]2C(=O)N[C@H]3C(=O)N[C@H](C(=O)N[C@H](C(=O)O)c4cc(O)cc(O)c4-c4cc3ccc4O)[C@H](O)c3ccc(c(Cl)c3)Oc3cc2cc(c3O[C@@H]2O[C@H](CO)[C@@H](O)[C@H](O)[C@H]2O[C@H]2C[C@](C)(N)[C@H](O)[C@H](C)O2)Oc2ccc(cc2Cl)[C@H]1O [Vancomycin]
fitness, main component drawn
Details	first compound 0.5 µg/mL	first compound 1 µg/mL	first compound 2 µg/mL	first compound 4 µg/mL	first compound 8 µg/mL
S. aureus Newman [3], partner 0.1875 µg/mL	0.991	0.988	–	–	–
S. aureus Newman [3], partner 0.375 µg/mL	0.981	0.996	≥ 1	–	–
S. aureus Newman [3], partner 0.75 µg/mL	0.999	≥ 1	≥ 1	–	–
S. pneumoniae D39V [1], partner 0.03125 µg/mL	–	–	0.974	≥ 1	0.98
S. pneumoniae D39V [1], partner 0.0625 µg/mL	–	–	0.949	0.977	0.952
S. pneumoniae D39V [1], partner 0.125 µg/mL	–	–	0.891	0.922	0.925
S. pneumoniae D39V [1], partner 0.25 µg/mL	–	–	0.0786	0.0692	0.0847
S. pneumoniae D39V [1], partner 0.5 µg/mL	–	–	0.0666	0.052	0.0832

fitness, S. aureus Newman [3], one replicate, main component drawn
Details	first compound 0.375 µg/mL	first compound 0.75 µg/mL	first compound 1.5 µg/mL
partner 0.1875 µg/mL	≥ 1	≥ 1	0.261
partner 0.375 µg/mL	≥ 1	≥ 1	0.0474
partner 0.75 µg/mL	≥ 1	≥ 1	0.0659

main component drawn
Details	Bliss interaction score
B. subtilis 168 [5]	0.0451
S. aureus DSM 20231	0.0984
S. aureus Newman [6]	0.0347
S. pneumoniae D39V [4]	-0.0655

CNC(C)C1CCC(N)C(OC2C(N)CC(N)C(OC3OCC(C)(O)C(NC)C3O)C2O)O1 (stereo unspecified) [Gentamicin] + Cn1nnc(-c2ccc(-c3ccc(N4C[C@H](CO)OC4=O)cc3F)cn2)n1 [Tedizolid]
fitness, main component drawn
Details	partner 0.03125 µg/mL	partner 0.0625 µg/mL	partner 0.125 µg/mL	partner 0.25 µg/mL	partner 0.5 µg/mL
S. aureus Newman [3], first compound 0.375 µg/mL	–	0.965	0.862	0.176	–
S. aureus Newman [3], first compound 0.5 µg/mL	–	0.938	0.934	0.605	–
S. aureus Newman [3], first compound 0.75 µg/mL	–	0.969	0.771	0.131	–
S. aureus Newman [3], first compound 1 µg/mL	–	0.949	0.907	–	–
S. aureus Newman [3], first compound 1.5 µg/mL	–	–	–	0.15	–
S. aureus Newman [3], first compound 2 µg/mL	–	0.979	0.905	0.702	–
S. pneumoniae D39V [1], first compound 2 µg/mL	0.933	0.964	0.687	0.259	0.104
S. pneumoniae D39V [1], first compound 4 µg/mL	0.942	0.964	–	0.211	0.105
S. pneumoniae D39V [1], first compound 8 µg/mL	0.933	0.954	–	0.242	0.0993

main component drawn
Details	Bliss interaction score
B. subtilis 168 [5]	0.228
S. aureus DSM 20231	0.0633
S. aureus Newman [6]	0.0667
S. pneumoniae D39V [4]	-0.112
